Assay: Solution stability of tetramethylpyrazine nitrone in different solvents at 25° C.
Format: physicochemical
Details: for Total impurities / Content: 25° C.
Method: Here, “NA” indicates not measured. “Total impurities” at 0 hour refer to that detected when API of tetramethylpyrazine nitrone is just prepared into a solution.
In 0.1 M HCl, the stability of tetramethylpyrazine nitrone compounds is low, and they begin to degrade as soon as they form a solution. After 3 hours, they completely degrade, and the total content of related substances reaches 100%.

Total impurities (0.1M HCl, 0 h): 59.28%
Content (0.1M HCl, 3 h): 0%
Total impurities (0.1M HCl, 3 h): 100%
Content (0.1M HCl, 24 h): 0%
Total impurities (0.1M HCl, 24 h): 100%
Total impurities (0.1M NaOH, 0 h): 17.78%
Content (0.1M NaOH, 3 h): 81.8%
Total impurities (0.1M NaOH, 3 h): 31.38%
Content (0.1M NaOH, 24 h): 56.54%
Total impurities (0.1M NaOH, 24 h): 49.23%
Content (Pure water, 0 h): 100%
Total impurities (Pure water, 0 h): 0.27%
Content (Pure water, 3 h): 99.71%
Total impurities (Pure water, 3 h): 0.39%
Content (Pure water, 24 h): 98.54%
Total impurities (Pure water, 24 h): 1.16%
Stability in solution (buffer solutions ranging from pH 6.0 to pH 7.4 at 25° C.): relatively stable
Total impurities (pH 4.5 Acetate buffer, 0 h): 8.36%
Content (pH 4.5 Acetate buffer, 3 h): 83.64%
Total impurities (pH 4.5 Acetate buffer, 3 h): 23.6%
Content (pH 4.5 Acetate buffer, 24 h): 60.56%
Total impurities (pH 4.5 Acetate buffer, 24 h): 44.44%
Content (pH 6.0 phosphate buffer, 0 h): 100%
Total impurities (pH 6.0 phosphate buffer, 0 h): 0.33%
Content (pH 6.0 phosphate buffer, 3 h): 98.39%
Total impurities (pH 6.0 phosphate buffer, 3 h): 0.44%
Content (pH 6.0 phosphate buffer, 6 h): 98.65%
Total impurities (pH 6.0 phosphate buffer, 6 h): 0.9%
Content (pH 6.0 phosphate buffer, 24 h): 96.62%
Total impurities (pH 6.0 phosphate buffer, 24 h): 2.19%
Content (pH 6.4 Phosphate buffer, 0 h): 100%
Total impurities (pH 6.4 Phosphate buffer, 0 h): 0.31%
Content (pH 6.4 Phosphate buffer, 3 h): 98.85%
Total impurities (pH 6.4 Phosphate buffer, 3 h): 0.4%
Content (pH 6.4 Phosphate buffer, 24 h): 97.78%
Total impurities (pH 6.4 Phosphate buffer, 24 h): 0.93%
Content (pH 7.4 Phosphate buffer, 0 h): 100%
Total impurities (pH 7.4 Phosphate buffer, 0 h): 0.47%
Content (pH 7.4 Phosphate buffer, 3 h): 100.83%
Total impurities (pH 7.4 Phosphate buffer, 3 h): 0.39%
Content (pH 7.4 Phosphate buffer, 24 h): 99.92%
Total impurities (pH 7.4 Phosphate buffer, 24 h): 1%
Stability in solution (solutions with a pH lower than 6.0): low
Compound: Cc1nc(C)c(/C=[N+](\[O-])C(C)(C)C)nc1C [tetramethylpyrazine nitrone]

Reference: US20260240839A1, “Pharmaceutical composition of tetramethylpyrazine nitrone for injection and a method for manufacture thereof” (GUANGZHOU MAGPIE PHARMACEUTICALS CO., LTD., priority 2022, published 2026)
